Measurements from patent US20090068290A1, “BIFEPRUNOX DOSES FOR TREATING SCHIZOPHRENIA” (priority 2006, published 2009).

What was measured:
[1] = test system: adult subjects with schizophrenia; assay: PANSS positive subscale score, Clinical Study One; type: in vivo, human; settings: ITT; for PANSS Positive Subscale Score, Trt Effect (bifeprunox—placebo): ANCOVA
Protocol: There were five treatment groups in this study. […] Study medication was administered once daily. After Baseline measurements were performed, the titration phase was begun. Bifeprunox treated subjects were titrated up to 5 mg, 10 mg or 20 mg according to a standardized titration schedule (Day 1: 0.125 mg, Day 2: 0.25 mg, Day 3: 0.5 mg, Day 4: 1.0 mg, Day 5: 2.0 mg, Day 6: 5.0 mg, Day 7: 10.0 mg, Day 8: 20 mg). When the assigned dose was reached, subjects were maintained at that dose for the remainder of the six-week treatment period.
The change in the Positive and Negative Symptom Scale (PANSS) total score, from baseline to endpoint, was the primary outcome measure. Secondary efficacy measures included: PANSS positive, PANSS negative, PANSS general psychopathology (GPP) score, PANSS-derived Brief Psychiatric Rating Scale (BPRS) score, Clinical Global Impressions-Severity of Illness (CGI-S), CGI-Improvement (CGI-I) scores, and responder rates. Safety and tolerability evaluations included extrapyramidal symptoms (EPS), weight gain, lipid profile, and serum prolactin.

[2] = test system: adult subjects with schizophrenia; assay: PANSS general psychopathology subscale score, Clinical Study Three; type: in vivo, human; settings: for Change from Baseline in PASS General Psychopathology Subscale Score, Mean (SD) / Change from Baseline in PASS General Psychopathology Subscale Score, Median / Trt Effect (bifeprunox - placebo), PASS General Psychopathology Subscale Score / mean change (SD) from Baseline to Endpoint in PANSS general psychopathology subscale score: LOCF; for Change from Baseline in PASS General Psychopathology Subscale Score, Mean (SD) / Change from Baseline in PASS General Psychopathology Subscale Score, Median / Trt Effect (bifeprunox - placebo), PASS General Psychopathology Subscale Score: ITT population; for Trt Effect (bifeprunox - placebo), PASS General Psychopathology Subscale Score: ANCOVA; for PANSS general psychopathology subscale score, treatment effect (bifeprunox—placebo): Endpoint LOCF; for mean change (SD) from Baseline to Endpoint in PANSS general psychopathology subscale score: ITT
Source text: SECONDARY OBJECTIVES To assess the efficacy of bifeprunox in treating schizophrenia using the Positive Symptom sub-scale score of the PANSS, the Negative Symptom sub-scale score of the PANSS, the General Psychopathology sub-scale of the PANSS, Brief Psychiatric Rating Scale (BPRS) total score derived from the PANSS, BPRS psychosis score derived from the PANSS, the Clinical Global Impression Severity of Illness score (CGI-S), the Clinical Global Impression Improvement score (CGI-I), CGI-I responder rate, PANSS responder rate based on the PANSS total score, Calgary Depression Scale for Schizophrenia (CDSS), and Subject Satisfaction rating.
There were four treatment arms in this study, approximately 144 subjects per arm. […] After completing the Single-Blind Placebo Lead-in Period of at least three days, bifeprunox-treated subjects were titrated from 0.25 mg up to 20 mg/day or 30 mg/day according to a standardized titration scheme over a seven- or eight-day period, respectively. When the assigned dose was reached, subjects were maintained at that dose for the remainder of the six week treatment period. […] Subjects were hospitalized (if not already inpatients) after eligibility for study entry was verified, starting from the Screening Visit until at least 10 days after Baseline. Subjects could be hospitalized longer than 10 days if considered medically necessary by the Investigator. Rating scale assessments for efficacy and abnormal movement disorders were done weekly except for Week 5. […] Subject satisfaction with study medication was assessed at Week 6.

[3] = Bifeprunox 10 mg, Endpoint LOCF
[4] = Bifeprunox 20 mg, Endpoint LOCF
[5] = Bifeprunox 20 mg, Week 6/Endpoint
[6] = Bifeprunox 30 mg, Week 6/Endpoint

O=c1[nH]c2cccc(N3CCN(Cc4cccc(-c5ccccc5)c4)CC3)c2o1 [Bifeprunox, 7-[4-([1,1′-biphenyl]-3-ylmethyl)-1-piperazinyl]-2(3H)-benzoxazolone]
Change from Baseline in PANSS Positive Subscale Score, Mean (S.D.) [1, 3]: −1.4 (6.1)
Change from Baseline in PANSS Positive Subscale Score, Median [1, 3]: −1
PANSS Positive Subscale Score, Trt Effect (bifeprunox—placebo) [1, 3]: 0.7
Change from Baseline in PANSS Positive Subscale Score, Mean (S.D.) ([1]; Bifeprunox 10 mg, Week 1, LOCF): −0.6 (3.9)
Change from Baseline in PANSS Positive Subscale Score, Median ([1]; Bifeprunox 10 mg, Week 1, LOCF): −1
Change from Baseline in PANSS Positive Subscale Score, Mean (S.D.) ([1]; Bifeprunox 10 mg, Week 2, LOCF): −1.2 (4.7)
Change from Baseline in PANSS Positive Subscale Score, Median ([1]; Bifeprunox 10 mg, Week 2, LOCF): −1
Change from Baseline in PANSS Positive Subscale Score, Mean (S.D.) ([1]; Bifeprunox 10 mg, Week 3, LOCF): −1.1 (5.5)
Change from Baseline in PANSS Positive Subscale Score, Median ([1]; Bifeprunox 10 mg, Week 3, LOCF): −1
Change from Baseline in PANSS Positive Subscale Score, Mean (S.D.) ([1]; Bifeprunox 10 mg, Week 4, LOCF): −1.1 (5.6)
Change from Baseline in PANSS Positive Subscale Score, Median ([1]; Bifeprunox 10 mg, Week 4, LOCF): −1
Change from Baseline in PANSS Positive Subscale Score, Mean (S.D.) [1, 4]: −3.5 (5.1)
Change from Baseline in PANSS Positive Subscale Score, Median [1, 4]: −3
PANSS Positive Subscale Score, Trt Effect (bifeprunox—placebo) [1, 4]: −1.5
Change from Baseline in PANSS Positive Subscale Score, Mean (S.D.) ([1]; Bifeprunox 20 mg, Week 1, LOCF): −1.7 (3.5)
Change from Baseline in PANSS Positive Subscale Score, Median ([1]; Bifeprunox 20 mg, Week 1, LOCF): −1
Change from Baseline in PANSS Positive Subscale Score, Mean (S.D.) ([1]; Bifeprunox 20 mg, Week 2, LOCF): −2.7 (4.3)
Change from Baseline in PANSS Positive Subscale Score, Median ([1]; Bifeprunox 20 mg, Week 2, LOCF): −3
Change from Baseline in PANSS Positive Subscale Score, Mean (S.D.) ([1]; Bifeprunox 20 mg, Week 3, LOCF): −3.3 (4.4)
Change from Baseline in PANSS Positive Subscale Score, Median ([1]; Bifeprunox 20 mg, Week 3, LOCF): −3
Change from Baseline in PANSS Positive Subscale Score, Mean (S.D.) ([1]; Bifeprunox 20 mg, Week 4, LOCF): −3.5 (4.8)
Change from Baseline in PANSS Positive Subscale Score, Median ([1]; Bifeprunox 20 mg, Week 4, LOCF): −3
Change from Baseline in PASS General Psychopathology Subscale Score, Mean (SD) ([2]; Bifeprunox 20 mg, Week 1): −2.4 (6.7)
Change from Baseline in PASS General Psychopathology Subscale Score, Median ([2]; Bifeprunox 20 mg, Week 1): −2
Change from Baseline in PASS General Psychopathology Subscale Score, Mean (SD) ([2]; Bifeprunox 20 mg, Week 2): −4.6 (8.4)
Change from Baseline in PASS General Psychopathology Subscale Score, Median ([2]; Bifeprunox 20 mg, Week 2): −5
Change from Baseline in PASS General Psychopathology Subscale Score, Mean (SD) ([2]; Bifeprunox 20 mg, Week 3): −5.6 (9.3)
Change from Baseline in PASS General Psychopathology Subscale Score, Median ([2]; Bifeprunox 20 mg, Week 3): −6
Change from Baseline in PASS General Psychopathology Subscale Score, Mean (SD) ([2]; Bifeprunox 20 mg, Week 4): −5.8 (10.1)
Change from Baseline in PASS General Psychopathology Subscale Score, Median ([2]; Bifeprunox 20 mg, Week 4): −7
Change from Baseline in PASS General Psychopathology Subscale Score, Mean (SD) [2, 5]: −6.1 (10.7)
Change from Baseline in PASS General Psychopathology Subscale Score, Median [2, 5]: −7
Trt Effect (bifeprunox - placebo), PASS General Psychopathology Subscale Score [2, 5]: −1.5
Change from Baseline in PASS General Psychopathology Subscale Score, Mean (SD) ([2]; Bifeprunox 30 mg, Week 1): −2.8 (6.3)
Change from Baseline in PASS General Psychopathology Subscale Score, Median ([2]; Bifeprunox 30 mg, Week 1): −3
Change from Baseline in PASS General Psychopathology Subscale Score, Mean (SD) ([2]; Bifeprunox 30 mg, Week 2): −3.8 (8.2)
Change from Baseline in PASS General Psychopathology Subscale Score, Median ([2]; Bifeprunox 30 mg, Week 2): −4
Change from Baseline in PASS General Psychopathology Subscale Score, Mean (SD) ([2]; Bifeprunox 30 mg, Week 3): −5.0 (9.3)
Change from Baseline in PASS General Psychopathology Subscale Score, Median ([2]; Bifeprunox 30 mg, Week 3): −4
Change from Baseline in PASS General Psychopathology Subscale Score, Median ([2]; Bifeprunox 30 mg, Week 4): −5
Change from Baseline in PASS General Psychopathology Subscale Score, Mean (SD) [2, 6]: −5.8 (10.3)
Change from Baseline in PASS General Psychopathology Subscale Score, Median [2, 6]: −6
Trt Effect (bifeprunox - placebo), PASS General Psychopathology Subscale Score [2, 6]: −0.9
PANSS general psychopathology subscale score, treatment effect (bifeprunox—placebo) ([2]; bifeprunox 20 mg): −1.5
mean change (SD) from Baseline to Endpoint in PANSS general psychopathology subscale score ([2]; bifeprunox 20 mg): −6.1 (10.7)
PANSS general psychopathology subscale score, treatment effect (bifeprunox—placebo) ([2]; bifeprunox 30 mg): −0.9
mean change (SD) from Baseline to Endpoint in PANSS general psychopathology subscale score ([2]; bifeprunox 30 mg): −5.8 (10.3)
